Experiments:
[1] = test system: CD34+ cells mobilized from bone marrow into peripheral blood; assay: First working embodiment: single-dose plerixafor mobilization in a deceased donor, apheresis, then CD34+ isolation
[2] = test system: PB HSC's / CD34+ cells; conditions: cited from earlier work

Compound: c1cc(CN2CCCNCCNCCCNCC2)ccc1CN1CCCNCCNCCCNCC1 [plerixafor, 1-{[4-(1,4,8,11-tetrazacyclotetradec-1-ylmethyl)phenyl]methyl}-1,4,8,11 tetrazacyclotetradecane]
- % CD34+ ([1]; Leukopak Product): 0.87%
- % viability ([1]; Leukopak Product): 99.5%
- TNC ([1]; Leukopak Product): 1.49E+10
- Total CD34+ (= % CD34+/100 x TNC) ([1]; Leukopak Product): 1.29E+08
- TNC/mL ([1]; Leukopak Product, single sc dose plerixafor, apheresis started 8 hours after dose, 24 liters processed): 3.23E+07
- % CD34+ ([1]; Positive (CD34) fraction): 95%
- % viability ([1]; Positive (CD34) fraction): 95%
- TNC ([1]; Positive (CD34) fraction): 1.22E+08
- TNC/mL ([1]; Positive (CD34) fraction): 2.60E+06
- Total CD34+ (= % CD34+/100 x TNC) ([1]; Positive (CD34) fraction): 1.16E+08
- whole body CT scans, routine hematology and serum chemistry panels before and after the procedure ([1]; deceased donor, single dose plerixafor): remained stable
- tolerability of the procedure (vital signs, oxygenation, urine output) ([1]; deceased donor, single sc dose plerixafor (0.24 kg/mg), 8 hours apheresis): tolerated the procedure well
- viable CD34+ cells isolated ([1]; first working embodiment): more than 1.0×10^8 cells
- purity of isolated CD34+ cells ([1]; first working embodiment, after isolation): 90-95%
- peak onset of action ([2]; after administration): 6 to 10 h
- fraction of healthy donors who fail to produce desired numbers of CD34+ cells/kg ([2]; single agent, standard dose 0.24 mg/kg, subcutaneously or intravenously): ⅓
- tolerability / organ toxicity ([2]; single subcutaneous dose): well tolerated with no major organ toxicity
